Holding throughout (assay type): in vivo
Assay [1] has as its system boll weevil (Anthonomus grandis). Briefly: Boll weevil test, 96-well microtiter plates with insect diet and eggs. Conditions: 120 h, egg and larval mortality after 5 days, read-out: mortality in comparison with untreated controls. The protocol: Boll Weevil (Anthonomus gandis)
For evaluating control of boll weevil (Anthonomus grandis) the test unit consisted of 96-well-microtiter plates containing an insect diet and 5-10 A. grandis eggs.
The compounds were formulated using a solution containing 75% v/v water and 25% v/v DMSO. Different concentrations of formulated compounds were sprayed onto the insect diet at 5 μl, using a custom built micro atomizer, at two replications.
After application, microtiter plates were incubated at about 25±1° C. and about 75±5% relative humidity for 5 days. Egg and larval mortality was then visually assessed.

Assay [2] concerns Diamond Back Moth (Plutella xylostella). Description: Diamond back moth test, dipped cabbage leaves. Conditions: 3rd instar larvae, 72 hours after treatment, read-out: mortality in comparison with untreated controls. How it is done:
Diamond Back Moth (Plutella xylostella)
The active compound is dissolved at the desired concentration in a mixture of 1:1 (vol:vol) distilled water:acetone. Surfactant (Kinetic® HV) is added at a rate of 0.01% (vol/vol). The test solution is prepared at the day of use.
Leaves of cabbage were dipped in test solution and air-dried. Treated leaves were placed in petri dishes lined with moist filter paper and inoculated with ten 3rd instar larvae. Mortality was recorded 72 hours after treatment. Feeding damages were also recorded using a scale of 0-100%.

For assay [3], the system named is vetch aphid (Megoura viciae). Briefly: Vetch aphid test, broad bean leaf disks in 24-well plates. As to conditions: foliar, 120 h, 5 days, read-out: mortality in comparison with untreated controls. How it is done:
Vetch Aphid (Megoura viciae)
For evaluating control of vetch aphid (Megoura viciae) through contact or systemic means the test unit consisted of 24-well-microtiter plates containing broad bean leaf disks.
The compounds were formulated using a solution containing 75% v/v water and 25% v/v DMSO. Different concentrations of formulated compounds were sprayed onto the leaf disks at 2.5 μl, using a custom built micro atomizer, at two replications.
After application, the leaf disks were air-dried and 5-8 adult aphids placed on the leaf disks inside the microtiter plate wells. The aphids were then allowed to suck on the treated leaf disks and incubated at about 23±1° C. and about 50±5% relative humidity for 5 days. Aphid mortality and fecundity was then visually assessed.

SMILES strings stand for the structures.

For orientation: mortality means the share of the test organisms that died. Turning to `Cn1c(C(F)(F)F)cc2nc(-c3ccccc3Cl)cn2c1=O` [Example C-1, 2-(2-chlorophenyl)-6-methyl-7-(trifluoromethyl)imidazo[1,2-c]pyrimidin-5-one], the mortality at 800 ppm in assay [1] is more than 75%.

Consider `CCS(=O)(=O)c1cccnc1-c1nc2cc(C(F)(F)F)cc(=O)n2n1C` [Example C-4, 2-(3-ethylsulfonyl-2-pyridyl)-3-methyl-7-(trifluoromethyl)-[1,2,4]triazolo[1,5-a]pyridin-5-one], for which the mortality at 300 ppm in assay [2] was more than 75%. In addition, in assay [3], the mortality at 800 ppm was more than 75%.

The values above are taken from patent US11570992B2, “Bicyclic compounds” (BASF SE, priority 2016, dated 2023).
